The text below walks through data of patent publication US9433667B2, “Cancer vaccines and vaccination methods” (Cedars-Sinai Medical Center, priority 2006, dated 2016).

The test system of test [1] is T2 pulsed Her-2 native peptide. As to the kind of experiment: IFN-γ production of Her-2 APL-specific CTLs induced in vitro from patient-derived PBMCs. Conditions: among four CTLs, two HLA-A*0201 GBM patients, P<0.05 vs No. 52. Type of test: cell-based, human. The method, then:
FIGS. 3A and 3B are bar graphs that show IFN-γ levels after in vitro induction of CTL in patient-derived PBMCs with native or superagonist Her-2 peptides in accordance with an embodiment of the present invention in two different patients.
(§1) The following protocol can be used to produce antigen specific CTL in vitro from patient derived PBMC. To generate dendritic cells, the plastic adherent cells from PBMCs are cultured in AIM-V medium supplemented with recombinant human GM-CSF and recombinant human IL-4 at 37° C. in a humidified CO2 (5%) incubator. Six days later, the immature dendritic cells in the cultures are stimulated with recombinant human TNF-α for maturation. Mature dendritic cells are then harvested on day 8, resuspended in PBS at 1×10^6 per mL with peptide (2 μg/mL), and incubated for 2 hours at 37° C. Autologous CD8+ T cells are enriched from PBMCs using magnetic microbeads (Miltenyi Biotech, Auburn, Calif.). CD8+ T cells (2×10^6 per well) are cocultured with 2×10^5 per well peptide-pulsed dendritic cells in 2 mL/well of AIM-V medium supplemented with 5% human AB serum and 10 units/mL rhIL-7 (Cell Sciences) in each well of 24-well tissue culture plates. About 20 U/ml of IL-2 is added 24 h later at regular intervals, 2 days after each restimulation. […] After 24 hours incubation, IFN-γ in the medium is measured by ELISA assay. […]

Test [2] has as its system T2 pulsed with gp100 native peptide. Put plainly: IFN-γ production of gp100 APL-specific CTLs induced in vitro from patient-derived PBMCs. In kind it is cell-based, human. Conditions: among six CTLs, two HLA-A*0201 GBM patients, P<0.05 vs gp100 (2M). Here is the method: FIGS. 2A and 2B are bar graphs that show IFN-γ levels after in vitro induction of CTL in patient-derived PBMCs with dendritic cells pulsed with gp100(2M) or superagonist gp100 peptides in accordance with an embodiment of the present invention in two separate patients.
as §1

Test [3] relates to T cells specific for ML-M epitope 19-30. Put plainly: Epitope-specific T cell responses in mice after IV immunization, measured by cell proliferation in vitro. Conditions: for T cell response after immunization: IV immunization, lymph node T cells recalled with peptides, FIG. 1. In kind it is in vivo, C3H mice. The method, then:
FIG. 1 is a graph depicting levels of epitope-specific T cell responses in mice following immunization IV with mouse lysozyme-M (ML-M), a mouse lysozyme peptide (p19-30), and a mouse lysozyme peptide modified with dibasic residues (18R31R), as measured by cell proliferation in vitro. T cells were isolated from lymph nodes of the animals (3 animals per group) and response to each immunogen was measured.
In studies using mouse lysozyme-M (ML-M) as a model self Ag, it was observed that mice of diverse MHC haplotypes were tolerant to native (unmutated) ML-M and peptide forms of certain T cell epitopes. It was hypothesized that tolerance to a given epitope was not an inherent structural characteristic, but was attributable in part to inefficient processing of the epitope, owing either to the absence of a proteolytic cleavage site adjacent to that determinant, or to the inaccessibility to the proteolytic enzyme(s) of an existing cleavage site within that region of the molecule. In either case, the provision of a new proteolytic cleavage site adjacent to a cryptic determinant may permit scission of the peptide at that site, making the previously cryptic epitope region available for binding to the appropriate MHC molecule, and lead to presentation to specific T cells of that determinant as a neodominant epitope on the APC surface. To test this proposition, a dibasic motif, consisting of two contiguous basic amino acid residues, e.g., arg-arg (RR) or arg-lys (RK), was used.
The targeted regions within ML-M included residues 19-31, which contain cryptic epitopes for mice of the H-2^k haplotype, shown in Table 7.

In the case of “H- F M A N V A I P H L -NH2 (H-FMANVAIPHL-NH2) [No. 19]”, the “IFN-γ level of CTL stimulated by the peptide” value in test [1] is reported as “highest IFN-γ level”.

As to “H- Y M D Q V P Y S V -NH2 (H-YMDQVPYSV-NH2) [No. 38]”, the “IFN-γ level of CTL stimulated by the peptide” value in test [2] was “highest IFN-γ level”.

Take “RR-GYYGVSLADWVC-RR (RRGYYGVSLADWVCRR; RR flanking dibasic residues; Synthetically generated peptide) [RR-p18-31-RR]”: the “T cell response after immunization” value in test [3] was “raised a potent T cell response”. In addition, the “in vitro restimulation of T cells primed by RR-p18-31-RR” value in test [3] (recall antigen in vitro) is “could be restimulated”.

B1: mouse lysozyme-M (protein, UniProt P08905 19-148, looked up)
Lysozyme C-2: KVYERCEFARTLKRNGMAGYYGVSLADWVCLAQHESNYNTRATNYNRGDQSTDYGIFQINSRYWCNDGKTPRAVNACGINCSALLQDDITAAIQCAKRVVRDPQGIRAWVAWRAHCQNRDLSQYIRNCGV
notes: model self antigen, native (unmutated) mouse lysozyme-M
Take B1: the “T cell response after immunization” value in test [3] is recorded as “failed to respond”.
